From patent publication US20250084096A1, “TERT-BUTYL (S)-2-(4-(PHENYL)-6H-THIENO[3, 2-F][1, 2, 4]TRIAZOLO[4, 3-A] [1,4]DIAZEPIN-6-YL) ACETATE DERIVATIVES AND RELATED COMPOUNDS AS BROMODOMAIN BRD4 INHIBITORS FOR TREATING CANCER” (Genentech, Inc., priority 2018, published 2025)

Legend:
[1] = target: BRD4_BD1 bromodomain (Homo sapiens (Human), UniProt O60885); test: BRD4 BD1 biochemical binding assay (TR-FRET); settings: displacement of biotinylated ligand Compound C
Method: (§1) The following assay was used to measure the IC50 for the test compounds ability to bind to the BRD4_BD1 and BRD4_BD2 bromodomains.
(§2) DMSO was backfilled to a final volume of 30 nL as required. […] 1× Assay Buffer was dispensed (5 μL per well) into Minimum Signal control wells. 5 μL of Solution A-3× was dispensed into test wells and Maximum Signal control wells (containing DMSO instead of test compound). Samples were incubated 10 minutes at room temperature. 5 μL of Solution B-3x was dispensed into all wells. Samples were incubated incubate for 10 minutes at room temperature. 5 μL of Solution C-3x was dispensed into all wells. Samples were incubated 40 minutes at room temperature. Plates were read using an Envision (Perkin Elmer) with the following settings: Detection—LANCE Dual Laser 50/200. […] Percentage inhibition was calculated relative to the Minimum Signal control and Maximum Signal control wells. IC50 values were derived by four parameter curve fitting using the Robust method.

[2] = target: BRD4_BD2 bromodomain (Homo sapiens (Human), UniProt O60885); test: BRD4 BD2 biochemical binding assay (TR-FRET); settings: displacement of biotinylated ligand Compound C
Method: as §1, §2

[3] = target: T1, BRD4 (Homo sapiens (Human), UniProt O60885); test: BRD4 degradation assay in PC3-Steap1 cells; type: cell-based; settings: for Dmax: complete loss = −100%, read-out: Sinf (maximum degradation, percent change in protein level)
Method: 2 μL of each sample from the serial dilution was transferred to 98 μL of assay media as an intermediate dilution. 5 μL of intermediate dilution was added to 45 μL of cell plate. Columns 1, 2, 23 and 24 were treated with only 0.2% w/v final concentration of DMSO for data normalization as “neutral controls”. After compound treatment, cell plates were stored in a 37° C. incubator for 4 hours.
Cell plate was incubated at room temperature for 20 minutes. Well contents were aspirated and washed with 100 μL/well PBS 3 times. 50 μL/well of PBS containing 0.5% w/v bovine serum albumen, 0.5% w/v Triton X-100 (Antibody Dilution Buffer) was added to each well. Samples were incubated for 30 minutes. Well contents were aspirated and washed 3 times with 100 μL/well of PBS. PBS was aspirated from the wells.
25 μL per well of BRD4 antibody diluted in buffer was added and incubated overnight at 4° C. On day-3 samples were washed 3 times with 100 μL/well of PBS. […] Samples were incubated for 2 hours at room temperature. Samples were washed 3 times with 100 μL PBS.
(§3) Quantitative fluorescence imaging of BRD4 was carried out using an Opera Phenix High-Content Screening System. […] Hoechst channel was used to identify nuclear region. […] Data analysis was carried out using Genedata Screener, with DMSO and no primary antibody control treated samples being used to define the 0% and 100% changes in BRD4. The dose-response log(inhibitor) vs. response was used to define the inflexion point of curve (IC50) and the plateau of the maximal effect. The Sit value reports degradation as percent change in protein level, so complete loss of the protein target is −100%. Sinf is the maximum degradation achieved, obtained by determining the bottom of a dose-response (where the S-shaped curve levels out).

[4] = target: T1, BRD4; test: BRD4 degradation assay in EoL-1 cells; type: cell-based; settings: for Dmax: EOL1, 4 hours, complete loss = −100%, read-out: Sinf (maximum degradation, percent change in protein level)
Method: 2 μL of each sample from the serial dilution was transferred to 98 μL of assay media as an intermediate dilution. 5 μL of each well of the intermediate dilution was added to 45 μL of cell plate. Columns 1, 2, 23 and 24 were treated with only 0.2% final concentration of DMSO for data normalization as “neutral controls”. After compound treatment, cell plates were stored in a 37° C. incubator for 4 hours.
The cell plate was incubated at room temperature for 20 minutes. Well contents were aspirated and washed with 100 μL/well PBS 3 times. 50 μL/well of PBS (pH7.5) containing 0.5% w/v bovine serum albumen, 0.5% w/v Triton X-100 (Block/Permeabilzation Buffer) was added to each well. Samples were incubated for 20 minutes. Well contents were aspirated and washed 3 times with 100 μL/well of PBS. PBS was aspirated from the well and 50 μL per well of EoL-1 Block Buffer (PBS containing 10% Normal Goat Serum (Abcam #ab7481)) was added to each well. Plates were incubated at room temperature for 30 minutes. Block buffer was decanted from the wells.
25 μL per well of BRD4 antibody diluted in buffer was added and incubated overnight at 4° C. On day-2 samples were washed 3 times with 100 μL/well of PBS. […] Samples were incubated for 2 hours at room temperature. Samples were washed 3 times with 100 μL PBS.
as §3, with “Sinf” for “Sit”

[5] = tested on: MYC expression; test: Myc mRNA assay in MV-4-11 cells; type: cell-based; settings: for Maximum Inhibition (%) (mean) of MYC expression: 4 hours, QuantiGene 2.0; for IC50: Homo sapiens, MV4-11, 4 hours, QuantiGene 2.0, read-out: Inhibition of MYC expression Average IC50
Method: Pharmacologic inhibition of MYC is achievable through targeting BET bromodomains through small molecule binder or degrader mechanisms.
Test compounds diluted in DMSO were transferred to the cell plates, keeping final DMSO concentration consistent at 0.1%, and incubated for 4 hours at 37° C. […] Luminescence was read using an EnVision plate reader (PerkinElmer) and IC50s generated in Genedata Screener using a 4-parameter non-linear regression fit.

[6] = 4 hours, immunofluorescence, read-out: Degradation of BRD4 Average EC50
[7] = read-out: Degradation of BRD4 Average EC50, 4 hours, immunofluorescence

SMILES | IC50 [1] | IC50 [2] | Dmax ([3]; 4 hours) | DC50 [3, 6] | DC50 [4, 6] | Dmax [4] | Maximum Inhibition (%) (mean) of MYC expression [5] | IC50 [5] | DC50 [3, 7] | DC50 [4, 7]
Cc1sc2c(c1C)C(c1ccc(C#CCN)cc1)=N[C@@H](CC(=O)OC(C)(C)C)c1nnc(C)n1-2 [Compound 1a, tert-butyl (S)-2-(4-(4-(3-aminoprop-1-yn-1-yl)phenyl)-2,3,9-trimethyl-6H-thieno[3,2-f][1,2,4]triazolo[4,3-a][1,4]diazepin-6-yl)acetate] | 15.5 nM | 12.3 nM | -84.6% | 1.4 nM | 1.3 nM | -83.8% | 89.1% | 2.9 nM | – | –
Cc1sc2c(c1C)C(c1ccc(Cl)cc1)=N[C@@H](CC(=O)OC(C)(C)C)c1nnc(C)n1-2 [Compound A, tert-butyl (S)-2-(4-(4-chlorophenyl)-2,3,9-trimethyl-6H-thieno[3,2-f][1,2,4]triazolo[4,3-a][1,4]diazepin-6-yl)acetate, reference compound] | – | – | – | – | – | – | 76.3% | 83.4 nM | – | –
CC#Cc1ccc(C2=N[C@@H](CC(=O)OC(C)(C)C)c3nnc(C)n3-c3sc(C)c(C)c32)cc1 [Compound 14a, tert-butyl (S)-2-(2,3,9-trimethyl-4-(4-(prop-1-yn-1-yl)phenyl)-6H-thieno[3,2-f][1,2,4]triazolo[4,3-a][1,4]diazepin-6-yl)acetate] | 18.8 nM | 20.3 nM | – | – | – | – | 73.6% | 97.2 nM | > 20000 nM | > 20000 nM
Cc1sc2c(c1C)C(c1ccc(C#CCCN)cc1)=N[C@@H](CC(=O)OC(C)(C)C)c1nnc(C)n1-2 [Compound 4a, tert-butyl (S)-2-(4-(4-(4-aminobut-1-yn-1-yl)phenyl)-2,3,9-trimethyl-6H-thieno[3,2-f][1,2,4]triazolo[4,3-a][1,4]diazepin-6-yl)acetate] | 13 nM | 17.7 nM | -54.7% | 3.4 nM | – | – | 79.4% | 19.8 nM | – | –
Cc1sc2c(c1C)C(c1ccc(CCCN)cc1)=N[C@@H](CC(=O)OC(C)(C)C)c1nnc(C)n1-2 [Compound 9a, tert-butyl (S)-2-(4-(4-(3-aminopropyl)phenyl)-2,3,9-trimethyl-6H-thieno[3,2-f][1,2,4]triazolo[4,3-a][1,4]diazepin-6-yl)acetate] | – | – | -57.6% | – | – | – | 78.1% | 27.7 nM | – | –
Cc1sc2c(c1C)C(c1ccc(C#CCNC(=N)N)cc1)=N[C@@H](CC(=O)OC(C)(C)C)c1nnc(C)n1-2 [Compound 5a, tert-butyl (S)-2-(4-(4-(3-guanidinoprop-1-yn-1-yl)phenyl)-2,3,9-trimethyl-6H-thieno[3,2-f][1,2,4]triazolo[4,3-a][1,4]diazepin-6-yl)acetate] | 7.2 nM | 8.5 nM | -86% | 101 nM | – | – | 87.6% | 124 nM | – | –
Cc1sc2c(c1C)C(c1ccc(C#CCN)cc1)=N[C@H](CC(=O)OC(C)(C)C)c1nnc(C)n1-2 [Compound 1b, tert-butyl (R)-2-(4-(4-(3-aminoprop-1-yn-1-yl)phenyl)-2,3,9-trimethyl-6H-thieno[3,2-f][1,2,4]triazolo[4,3-a][1,4]diazepin-6-yl)acetate] | 199 nM | 272 nM | -74.5% | 10.5 nM | 9 nM | -87% | 86.6% | 67.5 nM | – | –
Cc1sc2c(c1C)C(c1ccc(C#CCO)cc1)=N[C@@H](CC(=O)OC(C)(C)C)c1nnc(C)n1-2 [Compound 7a, tert-butyl (S)-2-(4-(4-(3-hydroxyprop-1-yn-1-yl)phenyl)-2,3,9-trimethyl-6H-thieno[3,2-f][1,2,4]triazolo[4,3-a][1,4]diazepin-6-yl)acetate] | 17.8 nM | 10.3 nM | – | > 20000 nM | – | – | 72.9% | 25.7 nM | – | –
Cc1sc2c(c1C)C(c1ccc(C#CC(C)N)cc1)=N[C@@H](CC(=O)OC(C)(C)C)c1nnc(C)n1-2 (stereo partly drawn) [Compound 11a, tert-butyl 2-((6S)-4-(4-(3-aminobut-1-yn-1-yl)phenyl)-2,3,9-trimethyl-6H-thieno[3,2-f][1,2,4]triazolo[4,3-a][1,4]diazepin-6-yl)acetate] | 14.1 nM | 10.6 nM | -43.3% | > 20000 nM | – | – | 72.5% | 20.7 nM | – | –
Cc1sc2c(c1C)C(c1ccc(/C=C/CN)cc1)=N[C@@H](CC(=O)OC(C)(C)C)c1nnc(C)n1-2 [Compound 6a, tert-butyl (S,E)-2-(4-(4-(3-aminoprop-1-en-1-yl)phenyl)-2,3,9-trimethyl-6H-thieno[3,2-f][1,2,4]triazolo[4,3-a][1,4]diazepin-6-yl)acetate] | – | – | -73.1% | – | – | -77.9% | 88.4% | 2 nM | – | –
Cc1sc2c(c1C)C(c1ccc(C#CCNO)cc1)=N[C@@H](CC(=O)OC(C)(C)C)c1nnc(C)n1-2 [Compound 8a, tert-butyl (S)-2-(4-(4-(3-(hydroxyamino)prop-1-yn-1-yl)phenyl)-2,3,9-trimethyl-6H-thieno[3,2-f][1,2,4]triazolo[4,3-a][1,4]diazepin-6-yl)acetate] | – | – | -92.6% | – | – | -92.2% | 95.1% | 7.2 nM | – | –
COC(=O)c1cc2c(cc1CS(C)(=O)=O)-c1cn(C)c(=O)c3[nH]cc(c13)CN2c1ncc(C#CCN)cc1F [Compound 15, methyl 4-(5-(3-aminoprop-1-yn-1-yl)-3-fluoropyridin-2-yl)-10-methyl-7-((methylsulfonyl)methyl)-11-oxo-3,4,10,11-tetrahydro-1H-1,4,10-triazadibenzo[cd,f]azulene-6-carboxylate] | – | – | – | > 20000 nM | > 20000 nM | – | 75.7% | 7.2 nM | – | –
Cc1sc2c(c1C)C(c1ccc(C#CC(C)(C)N)cc1)=N[C@@H](CC(=O)OC(C)(C)C)c1nnc(C)n1-2 [Compound 12a, tert-butyl (S)-2-(4-(4-(3-amino-3-methylbut-1-yn-1-yl)phenyl)-2,3,9-trimethyl-6H-thieno[3,2-f][1,2,4]triazolo[4,3-a][1,4]diazepin-6-yl)acetate] | – | – | – | – | – | – | 73.3% | 12.6 nM | – | –
